Experimental data as given in patent US20090221095A1, “Colorimetric Screening of DNA Binding/Intercalating Agents with Gold Nanoparticle Probes” (NORTHWESTERN UNIVERSITY, priority 2005, published 2009).

Tested on: duplex DNA between NP-1 and NP-2
Test: Naked-eye color change of NP-1/NP-2 nanoassembly at specific temperatures
Format: binding
Details: for color of nanoassembly: NP-1 and NP-2 1.5 nM each, intercalator 5 μM; for trend of intercalator binding affinities for DNA: from the color change with temperature
From the text: This method also utilizes the aggregation-induced, red-to-blue color change associated with 13 nm Au nanoparticles. Gold nanoparticles are functionalized with one of two complementary thiol-modified oligonucleotide strands and are denoted NP-1 and NP-2. When NP-1 and NP-2 are combined, they form aggregates through a reversible DNA hybridization process. This process results in a red-to-blue color change due to a red-shifting and dampening of the nanoparticle plasmon resonance. Increasing the temperature above the melting temperature of the DNA reverses the process, and the particles dissociate with a concomitant blue-to-red color change. […] This increased stability is reflected by an increase in melting temperature. Note that the shape and breadth of the transition is almost independent of the intercalator (FIG. 4). Therefore, by monitoring the blue-to-red color transition of hybridized oligonucleotide-modified Au nanoparticles in the presence of different compounds, the relative strength of intercalator binding can be determined with the naked-eye.
In general, assay methods that can detect drug candidates by the naked eye, without resorting to any instrumentation, are convenient, and for this reason, an assay that could seem for drug candidates based on DNA intercalation would be of great interest. […] As the temperature increases, the color change from blue to red occurs at specific temperatures. At 25° C. all eight cells (one control and seven intercalators) appear light blue/purple in color. At 30° C., the nanoassemblies containing the control and weak intercalators turn red in color leaving only the nanoassemblies containing DAPI, DNR, and EB as blue/purple.

| SMILES | color of nanoassembly (30° C.) | color of nanoassembly (40° C.) | trend of intercalator binding affinities for DNA |
| --- | --- | --- | --- |
| N=C(N)c1ccc(-c2cc3ccc(C(=N)N)cc3[nH]2)cc1 [DAPI, 4′,6-diamidino-2-phenylindole] | blue/purple | turn red except the nanoassembly containing DAPI | DAPI>DNR˜EB>other intercalators |
| COc1cccc2c1C(=O)c1c(O)c3c(c(O)c1C2=O)C[C@@](O)(C(C)=O)C[C@@H]3O[C@H]1C[C@H](N)[C@H](O)[C@H](C)O1 [DNR, daunorubicin] | blue/purple |  | DAPI>DNR˜EB>other intercalators |
